The results in this text go back to US5045558A, “N-substituted imidazoles and their use in pharmaceutical agents” (Schering Aktiengesellschaft, priority 1988, dated 1991).

One assay concerns the target T1, 11beta-hydroxylase (Bos taurus, UniProt P15150).
T1 construct: mitochondria, obtained from bovine suprarenals; from tissue; host or cells: bovine suprarenals (adrenal glands), mitochondria
T1 sequence (P15150 25-503): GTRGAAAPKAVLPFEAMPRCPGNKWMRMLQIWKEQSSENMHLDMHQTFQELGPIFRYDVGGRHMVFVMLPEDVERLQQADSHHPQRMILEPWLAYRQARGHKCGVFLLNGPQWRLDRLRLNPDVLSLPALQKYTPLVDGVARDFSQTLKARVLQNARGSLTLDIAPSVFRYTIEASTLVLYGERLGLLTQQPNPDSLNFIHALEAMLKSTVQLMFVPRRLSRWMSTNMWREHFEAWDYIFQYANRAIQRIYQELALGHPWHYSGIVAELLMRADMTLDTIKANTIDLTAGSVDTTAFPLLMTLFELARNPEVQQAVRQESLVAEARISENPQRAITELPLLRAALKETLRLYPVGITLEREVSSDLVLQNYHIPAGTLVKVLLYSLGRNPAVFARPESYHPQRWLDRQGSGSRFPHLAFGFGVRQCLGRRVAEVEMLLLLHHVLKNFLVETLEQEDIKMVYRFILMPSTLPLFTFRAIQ
As to the kind of experiment: Test B: Determination of 11-beta Hydroxylase Activity (mitochondria from bovine suprarenals). Format: biochemical. To be noted: for IC50: Test B, bovine suprarenal mitochondria, substrate concentration corresponds to apparent Km; for selectivity of aromatase inhibition (in words): aromatase vs other enzyme systems (11beta-hydroxylase), in comparison with compound 1 / compounds known so far. Here is the method:
Determination of 11-beta Hydroxylase Activity
The 11beta-hydroxylase activity is measured on mitochondria, obtained from bovine suprarenals. The reaction of [1,2-^3 H]-17alpha-hydroxy-11-deoxycorticosterone in cortisol is determined by thin-film chromatography of the resulting reaction products according to a method of Mitani et al (J. Biol. Chem 250, 8010-15 (1975)). The concentration of the examined compound is determined, in which the reaction is inhibited by 50%, and the substrate concentration corresponds to the apparent Km value.

In another assay the target is T2, aromatase (Homo sapiens, UniProt P11511).
T2 construct: microsomes obtained from human placenta; from tissue; host or cells: human placenta, microsomes
T2 sequence (P11511 1-503): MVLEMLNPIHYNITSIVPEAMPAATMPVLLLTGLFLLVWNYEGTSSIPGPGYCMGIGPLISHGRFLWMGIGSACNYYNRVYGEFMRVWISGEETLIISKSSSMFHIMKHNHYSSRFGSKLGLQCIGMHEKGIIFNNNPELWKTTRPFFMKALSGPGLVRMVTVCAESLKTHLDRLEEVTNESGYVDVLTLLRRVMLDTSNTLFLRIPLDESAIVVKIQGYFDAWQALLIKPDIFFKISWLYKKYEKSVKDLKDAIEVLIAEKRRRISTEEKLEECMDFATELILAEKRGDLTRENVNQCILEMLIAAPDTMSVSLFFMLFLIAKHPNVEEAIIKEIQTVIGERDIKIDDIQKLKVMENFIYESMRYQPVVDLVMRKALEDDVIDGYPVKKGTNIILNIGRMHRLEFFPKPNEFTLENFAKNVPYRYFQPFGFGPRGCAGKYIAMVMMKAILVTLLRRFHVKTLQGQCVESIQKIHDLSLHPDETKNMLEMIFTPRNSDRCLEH
As to the kind of experiment: Test A: Determination of Aromatase Activity (release of tritium-labeled water, human placenta microsomes). The assay is classed as biochemical. To be noted: for Ki: Test A, human placenta microsomes, Dixon method; for inhibition of aromatase (in words): in comparison with compound 1 / compounds known so far. The protocol:
Determination of Aromatase Activity
The capabilities of compounds to inhibit the enzyme system of aromatase is tested on microsomes obtained from human placenta. The release of tritium-labeled water (^3 H2 O), which is released as reaction product in the aromatizing of (1beta-^3 H) androstrenedione to estrogen, is measured according to the methods of Thompson and Siiteri (J. Biol. Chem. Z49, 5364-72 (1974)). The corresponding inhibition values (K1, aromatase) are determined according to the method of Dixon (Biochem. J. 94, 760 (1965) by graphic determination of the application of 1/v against the inhibition concentration.

In general, IC50 refers to the point on the concentration scale where inhibition reaches its midpoint. For orientation: Ki means a measure of affinity in units of concentration, obtained from inhibition or displacement. Low readings indicate higher affinity, high ones lower affinity. Consider `CCCC(c1ccc(C#N)cc1)n1ccnc1` (stereo not shown) [Compound 1, 4-[1-(1-imidazolyl)-butyl]-benzonitrile, reference compound], for which the IC50 on 11beta-hydroxylase came to 94 nM. On aromatase, this compound showed a Ki of 1.1 nM.
Regarding `CCCCCC(=O)c1ccc(C(CCC)n2ccnc2)cc1` (stereo not shown) [Compound 2, [4-[1-(1-Imidazolyl)-butyl]-phenyl]-pentylketone], at 11beta-hydroxylase, the IC50 was determined as 1500 nM and the “selectivity of aromatase inhibition (in words)” value is on record as “more selective effectiveness”. Moreover, at aromatase, the affinity, expressed as Ki, was 0.42 nM and the “inhibition of aromatase (in words)” value is “stronger inhibition actions of aromatase than compound 1”.
For `CCCCOC(=O)c1ccc(C(CCC)n2ccnc2)cc1` (stereo not shown) [Compound 3, 4-[1-(1-imidazolyl)-butyl]-benzoic acid butyl ester], in that order: 750 nM, “more selective effectiveness”, 0.87 nM and “stronger inhibition actions of aromatase than compound 1”.
